From ChEMBL document CHEMBL1201862, “PubChem BioAssay data set” (2004)
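Exposure lasted 48 hours, with cells grown in 96-well plates and compounds tested at five concentrations. Here, GI50 denotes the concentration required for 50% inhibition of growth.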 Active and inactive are the calls of the source. No stated cut-off is given here; in the data, active = GI50 up to about 1.1 µM and inactive = higher.

Experiments:
Test in all cases: growth of human tumour cells (NCI), 48 h
[1] = test system: 786-0
[2] = test system: A498
[3] = test system: HCC 2998
[4] = test system: HCT-15
[5] = test system: HT-29
[6] = test system: K562
[7] = test system: LOX IMVI
[8] = test system: MOLT-4
[9] = test system: NCI-H226
[10] = test system: NCI-H23
[11] = test system: NCI-H460
[12] = test system: NCI-H522
[13] = test system: PC-3
[14] = test system: RXF 393
[15] = test system: SF-295
[16] = test system: SK-MEL-28
[17] = test system: TK-10
[18] = test system: UACC-62
[19] = test system: HOP-92
[20] = test system: M14

| Compound | GI50 [1] | GI50 [2] | GI50 [3] | GI50 [4] [µM] | GI50 [5] | GI50 [6] | GI50 [7] | GI50 [8] | GI50 [9] | GI50 [10] | GI50 [11] | GI50 [12] | GI50 [13] | GI50 [14] | GI50 [15] | GI50 [16] | GI50 [17] | GI50 [18] | GI50 [19] | GI50 [20] |
| --- | --- | --- | --- | --- | --- | --- | --- | --- | --- | --- | --- | --- | --- | --- | --- | --- | --- | --- | --- | --- |
| O=C(CNc1cccc([N+](=O)[O-])c1)Nn1c(-c2ccccc2)nc2ccccc2c1=O | 0.399 µM (active) | 0.0112 µM (active) | 1.49 µM (inactive) | 0.419 | 0.312 µM (active) | 0.528 µM (active) | 0.221 µM (active) | 0.246 µM (active) | 0.2 µM (active) | 0.653 µM (active) | 0.555 µM (active) | 0.433 µM (active) | 0.543 µM (active) | 0.37 µM (active) | 1.58 µM (inactive) | 0.513 µM (active) | 0.363 µM (active) | 0.212 µM (active) |  |  |
| O=[N+]([O-])c1cc(Cl)ccc1S(=O)(=O)c1cc(Cl)cc2c1NCCC2 | > 100 µM (inactive) | > 100 µM (inactive) | > 100 µM (inactive) | 60.7 | 45.6 µM (inactive) | 24.5 µM (inactive) | 58.5 µM (inactive) | 27.6 µM (inactive) | 39.3 µM (inactive) |  | 55.1 µM (inactive) |  | 69.8 µM (inactive) | 41.4 µM (inactive) | 36.7 µM (inactive) | 35.8 µM (inactive) | > 100 µM (inactive) | 29.5 µM (inactive) | 54.6 µM (inactive) | 53 µM (inactive) |
| COc1ccc(C2N(c3ccc(F)c([N+](=O)[O-])c3)C(=O)N3C(c4ccc(OC)cc4)N(c4ccc(F)c([N+](=O)[O-])c4)C(=O)N23)cc1 (configuration not stated) | > 100 µM (inactive) | > 100 µM (inactive) | > 100 µM (inactive) | > 100 | > 100 µM (inactive) |  | > 100 µM (inactive) |  |  | > 100 µM (inactive) | > 100 µM (inactive) | > 100 µM (inactive) | > 100 µM (inactive) | > 100 µM (inactive) | > 100 µM (inactive) | > 100 µM (inactive) | > 100 µM (inactive) | > 100 µM (inactive) | 23.1 µM (inactive) | 65.9 µM (inactive) |
| C[C@]12CC(c3ccccc3O1)C(C#N)C(=O)N2 (some centres not stated) | > 100 µM (inactive) | > 100 µM (inactive) | > 100 µM (inactive) | > 100 | > 100 µM (inactive) | > 100 µM (inactive) | > 100 µM (inactive) | > 100 µM (inactive) | > 100 µM (inactive) | > 100 µM (inactive) | > 100 µM (inactive) |  | > 100 µM (inactive) | > 100 µM (inactive) |  | > 100 µM (inactive) |  | > 100 µM (inactive) | > 100 µM (inactive) | > 100 µM (inactive) |
| COC(=O)Nc1nc2ccccc2[nH]1 [CARBENDAZIM] | 9.53 µM (inactive) | > 100 µM (inactive) | 5.37 µM (inactive) | 3.37 | 4.66 µM (inactive) |  | 8.73 µM (inactive) | 6.34 µM (inactive) | 10.4 µM (inactive) | 14.2 µM (inactive) | 3.36 µM (inactive) |  | 15.3 µM (inactive) | 17.5 µM (inactive) | 4.72 µM (inactive) | 16.2 µM (inactive) | > 49.2 µM (inactive) | 4 µM (inactive) | > 100 µM (inactive) | 4.69 µM (inactive) |
| COc1cc(Br)c(OC)c2c(OC)cc(C)cc12 | 75.7 µM (inactive) | > 100 µM (inactive) | > 100 µM (inactive) | > 100 | 67.8 µM (inactive) | 67 µM (inactive) | > 100 µM (inactive) | 20 µM (inactive) | > 100 µM (inactive) | > 100 µM (inactive) | > 100 µM (inactive) | > 100 µM (inactive) | 44.6 µM (inactive) | 50.1 µM (inactive) | > 100 µM (inactive) | > 100 µM (inactive) | > 100 µM (inactive) | > 100 µM (inactive) |  | 64.7 µM (inactive) |
| Cc1c(/C=N\NC(=S)N(C)CCN(C)C(=S)N/N=C\c2c(C)n(C)n(-c3ccccc3)c2=O)c(=O)n(-c2ccccc2)n1C | > 100 µM (inactive) | > 100 µM (inactive) | > 100 µM (inactive) | > 100 | > 100 µM (inactive) |  |  | > 100 µM (inactive) | > 100 µM (inactive) | > 100 µM (inactive) | > 100 µM (inactive) | 41.7 µM (inactive) | > 100 µM (inactive) | > 100 µM (inactive) | > 100 µM (inactive) |  | > 100 µM (inactive) | > 100 µM (inactive) | > 100 µM (inactive) | > 100 µM (inactive) |
| Cc1[nH]c(=O)[nH]c(=O)c1N(CCF)CCCl [FLUORODOPAN] | 451 µM (inactive) | 418 µM (inactive) | 353 µM (inactive) |  | 442 µM (inactive) | 244 µM (inactive) |  |  | 560 µM (inactive) | 348 µM (inactive) |  | 143 µM (inactive) | 363 µM (inactive) | 219 µM (inactive) | 284 µM (inactive) | 420 µM (inactive) | 495 µM (inactive) | 283 µM (inactive) | 109 µM (inactive) | 381 µM (inactive) |
| CC(=O)[C@@H]1[C@@H](OC(=O)CCC(C)COC2OC(CO)C(O)C(O)C2O)C[C@H]2[C@@H]3CC=C4C[C@@H](OC5OC(CO)C(OC6OC(C)C(O)C(O)C6O)C(O)C5OC5OC(C)C(O)C(O)C5O)CC[C@]4(C)[C@H]3CC[C@]12C (some centres not stated) | > 100 µM (inactive) | > 100 µM (inactive) | > 100 µM (inactive) |  |  | > 100 µM (inactive) | > 100 µM (inactive) | > 100 µM (inactive) |  | > 100 µM (inactive) | > 100 µM (inactive) | 35.2 µM (inactive) | > 100 µM (inactive) | > 100 µM (inactive) | > 100 µM (inactive) | > 100 µM (inactive) | > 100 µM (inactive) | > 100 µM (inactive) |  | > 100 µM (inactive) |
| COc1cccc(C2c3cc4c(cc3OC(NNc3ccccc3)C2C)OCO4)c1OC (configuration not stated) | 19.4 µM (inactive) | 14.9 µM (inactive) | 2.29 µM (inactive) | 2.18 | 12 µM (inactive) | 1.49 µM (inactive) | 16.5 µM (inactive) | 2.55 µM (inactive) | 5.06 µM (inactive) | 10.7 µM (inactive) | 3.26 µM (inactive) | 2.07 µM (inactive) | 1.76 µM (inactive) | 3.76 µM (inactive) | 0.678 µM (active) | 24.2 µM (inactive) | 2.61 µM (inactive) | 2.78 µM (inactive) |  | 5.06 µM (inactive) |
| CC(C)(C)N1C(=O)[N-]/[N+](=C(/C(c2ccccc2)=[N+]2/[N-]C(=O)N(C(C)(C)C)C2=O)c2ccccc2)C1=O | > 100 µM (inactive) | > 100 µM (inactive) | > 100 µM (inactive) | > 100 |  | > 100 µM (inactive) | > 100 µM (inactive) | > 100 µM (inactive) |  | > 100 µM (inactive) | > 100 µM (inactive) |  | > 100 µM (inactive) | > 100 µM (inactive) | > 100 µM (inactive) | > 100 µM (inactive) | > 100 µM (inactive) | > 100 µM (inactive) | > 100 µM (inactive) | > 100 µM (inactive) |
